Values of other authors as cited in US6359007B1 (ChronoRX, LLC, priority 1999, dated 2002).
Where two headings read alike, the source gives them in different places.

Tests used:
[1] = in vivo
[2] = stomach in the "fed" state
[3] = per meal, curvilinear falloff
[4] = not given; remark: listed apart in the source

Question: With `O=C1O[C@H]([C@@H](O)CO)C(O)=C1O` [AA, ascorbic acid] as the compound, how does the “mean steady state plasma concentration” value (daily oral dose 200 mg) read?
Answer: 12 mg/L

Question: And the “mean steady state plasma concentration” value (daily oral dose 2500 mg)?
Answer: 15 mg/L

Question: For `[Cu+2]` [Cu^+2, Copper], which “Absorption (via carrier-mediated transport)” value [1] is on record?
Answer: 30-40%

Question: What about the “absorption of ingested Cu^+2” value [1] of the same compound?
Answer: 30-40%

Question: With `N=C(N)NCCC[C@H](N)C(=O)O` [L-arginine] as the compound, how does the “gastrointestinal uptake of dietary arginine” value [2] read?
Answer: about 38%

Question: With `[Mg+2]` [Mg^+2, Magnesium] as the compound, how does the maximum bolus absorption [3] read?
Answer: 8 meq

Question: Which “increase of mean plasma Zn^+2 above pre-load levels” value ([4]; 11-fold increase in Zn^+2 intake) does the source give for `[Zn+2]` [Zn^+2, Zinc] here?
Answer: About 37%

Question: What about the “Zn^+2 absorption” value ([4]; in vivo) of the same compound?
Answer: 40% to 86

Question: What about the “ingested Zn^+2 entering the plasma” value ([4]; in vivo) of the same compound?
Answer: About 37%

Question: What about the “time by which gastrointestinal absorption is essentially complete” value ([4]; in vivo) of the same compound?
Answer: ≤ 4 h
